In ChEMBL document CHEMBL1201862, “PubChem BioAssay data set” (2004):
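Briefly, cells in 96-well plates were exposed to five compound concentrations for 48 h, and endpoints were estimated by linear interpolation. Abbreviation: GI50, concentration required for 50% inhibition of growth.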 Activity calls are given as the source filed them. Cut-off read from the data, not from the text of the source: active = GI50 up to about 1.1 µM and inactive = higher.

What was measured:
Assay in all cases: NCI tumour cell line growth inhibition, 48 h
IGROV-1 = test system: IGROV-1
LOX IMVI = test system: LOX IMVI
RXF 393 = test system: RXF 393
KM12 = test system: KM12
A498 = test system: A498
CCRF-CEM = test system: CCRF-CEM
HCC 2998 = test system: HCC 2998
UACC-62 = test system: UACC-62
SF-539 = test system: SF-539
NCI-H226 = test system: NCI-H226
SW-620 = test system: SW-620
NCI-H460 = test system: NCI-H460
MDA-MB-231 = test system: MDA-MB-231
HCT-116 = test system: HCT-116
OVCAR-5 = test system: OVCAR-5
EKVX = test system: EKVX
Malme-3M = test system: Malme-3M
SK-OV-3 = test system: SK-OV-3
BT-549 = test system: BT-549
MCF7 = test system: MCF7
UACC-257 = test system: UACC-257
UO-31 = test system: UO-31
HOP-62 = test system: HOP-62
M14 = test system: M14
K562 = test system: K562
COLO 205 = test system: COLO 205
NCI/ADR-RES = test system: NCI/ADR-RES
HT-29 = test system: HT-29
SK-MEL-28 = test system: SK-MEL-28
RPMI-8226 = test system: RPMI-8226
A549 = test system: A549
SF-295 = test system: SF-295
SN12C = test system: SN12C
PC-3 = test system: PC-3
CAKI-1 = test system: CAKI-1
OVCAR-4 = test system: OVCAR-4
ACHN = test system: ACHN
HCT-15 = test system: HCT-15
T47D = test system: T47D
SK-MEL-2 = test system: SK-MEL-2
NCI-H522 = test system: NCI-H522
MOLT-4 = test system: MOLT-4
SR = test system: SR
786-0 = test system: 786-0
SF-268 = test system: SF-268
SNB-19 = test system: SNB-19
NCI-H23 = test system: NCI-H23
DU-145 = test system: DU-145
MDA-N = test system: MDA-N
MDA-MB-435 = test system: MDA-MB-435
OVCAR-3 = test system: OVCAR-3
OVCAR-8 = test system: OVCAR-8
SK-MEL-5 = test system: SK-MEL-5
U-251 = test system: U-251
TK-10 = test system: TK-10
HOP-92 = test system: HOP-92

CN(C)/C=C/c1ccncc1
GI50 (IGROV-1): > 100 µM (inactive) | GI50 (LOX IMVI): > 100 µM (inactive) | GI50 (RXF 393): > 100 µM (inactive) | GI50 (KM12): > 100 µM (inactive) | GI50 (A498): > 100 µM (inactive) | GI50 (CCRF-CEM): 48.6 µM (inactive) | GI50 (HCC 2998): > 100 µM (inactive) | GI50 (UACC-62): > 100 µM (inactive) | GI50 (SF-539): > 100 µM (inactive) | GI50 (NCI-H226): > 100 µM (inactive) | GI50 (SW-620): > 100 µM (inactive) | GI50 (NCI-H460): > 100 µM (inactive) | GI50 (MDA-MB-231): > 100 µM (inactive) | GI50 (HCT-116): > 100 µM (inactive) | GI50 (OVCAR-5): > 100 µM (inactive) | GI50 (EKVX): > 100 µM (inactive) | GI50 (Malme-3M): > 100 µM (inactive) | GI50 (SK-OV-3): > 100 µM (inactive) | GI50 (BT-549): > 100 µM (inactive) | GI50 (MCF7): > 100 µM (inactive) | GI50 (UACC-257): > 100 µM (inactive) | GI50 (UO-31): > 100 µM (inactive) | GI50 (HOP-62): > 100 µM (inactive) | GI50 (M14): > 100 µM (inactive) | GI50 (K562): > 100 µM (inactive) | GI50 (COLO 205): > 100 µM (inactive) | GI50 (NCI/ADR-RES): > 100 µM (inactive) | GI50 (HT-29): > 100 µM (inactive) | GI50 (SK-MEL-28): > 100 µM (inactive) | GI50 (RPMI-8226): > 100 µM (inactive) | GI50 (A549): > 100 µM (inactive) | GI50 (SF-295): > 100 µM (inactive) | GI50 (SN12C): > 100 µM (inactive) | GI50 (PC-3): > 100 µM (inactive) | GI50 (CAKI-1): > 100 µM (inactive) | GI50 (OVCAR-4): > 100 µM (inactive) | GI50 (ACHN): > 100 µM (inactive) | GI50 (HCT-15): > 100 µM | GI50 (T47D): > 100 µM (inactive) | GI50 (SK-MEL-2): > 100 µM (inactive) | GI50 (NCI-H522): > 100 µM (inactive) | GI50 (MOLT-4): 28.7 µM (inactive) | GI50 (SR): > 100 µM (inactive) | GI50 (786-0): > 100 µM (inactive) | GI50 (SF-268): > 100 µM (inactive) | GI50 (SNB-19): > 100 µM (inactive) | GI50 (NCI-H23): > 100 µM (inactive) | GI50 (DU-145): > 100 µM (inactive) | GI50 (MDA-N): > 100 µM (inactive) | GI50 (MDA-MB-435): > 100 µM (inactive) | GI50 (OVCAR-3): > 100 µM (inactive) | GI50 (OVCAR-8): > 100 µM (inactive) | GI50 (SK-MEL-5): > 100 µM (inactive) | GI50 (U-251): > 100 µM (inactive) | GI50 (TK-10): > 100 µM (inactive) | GI50 (HOP-92): > 100 µM (inactive)
